Laboratory results reported in the NIST ThermoML archive (doi:10.1021/je300826t).
± gives the expanded uncertainty stated by the source.

Columns and labels:
[1] = 298.15 K; 101.33 kPa; Liquid; Vibrating tube method
[2] = refractive index (Na D-line) (dimensionless); settings: 298.15 K; 101.33 kPa; Liquid; Standard Abbe refractometry

CCCCn1cc[n+](C)c1.COS(=O)(=O)[O-] [1-butyl-3-methylimidazolium methyl sulfate]
mass density [1]: 1212.59 ± 0.41 kg/m3
refractive index [2]: 1.47792 ± 0.0007

c1ccccc1 [benzene]
mass density [1]: 873.57 ± 0.11 kg/m3
refractive index [2]: 1.49774 ± 0.00068

C1CCCCC1 [cyclohexane]
mass density [1]: 773.8 ± 0.13 kg/m3
refractive index [2]: 1.4236 ± 0.00068

C1CCCCCCC1 [cyclooctane]
mass density [1]: 831.47 ± 0.24 kg/m3
refractive index [2]: 1.45598 ± 0.0007

CCc1ccccc1 [ethylbenzene]
mass density [1]: 862.51 ± 0.11 kg/m3
refractive index [2]: 1.49304 ± 0.00068

CC1CCCCC1 [methylcyclohexane]
mass density [1]: 765.02 ± 0.24 kg/m3
refractive index [2]: 1.42062 ± 0.0007
